The supplement of paper PMC13380429

Experiments:
Conditions in all cases: 72 h
Vero E6 [1] = experiment: cell viability relative to DMSO; higher = less toxic
U2OS [2] = experiment: as above
Caco-2 [3] = experiment: as above
Calu-3 [4] = experiment: as above
HepG2 [5] = experiment: as above
Vero E6 [6] = experiment: drug sensitivity score (DSS) for viability; higher = more toxic; extreme values may be limits of the assay
U2OS [7] = experiment: as above
Caco-2 [8] = experiment: as above
Calu-3 [9] = experiment: as above
HepG2 [10] = experiment: as above
Vero E6 [11] = experiment: relative viability EC50 (midpoint between 100% and the lowest measured viability); higher = less toxic
U2OS [12] = experiment: as above
Caco-2 [13] = experiment: as above
HepG2 [14] = experiment: as above
Calu-3 [15] = experiment: as above

Structure (SMILES) | cell viability (Vero E6 [1]; 1 nM) [%] | cell viability (Vero E6 [1]; 10 nM) [%] | cell viability (Vero E6 [1]; 100 nM) [%] | cell viability (Vero E6 [1]; 1000 nM) [%] | cell viability (Vero E6 [1]; 10000 nM) [%] | cell viability (U2OS [2]; 1 nM) [%] | cell viability (U2OS [2]; 10 nM) [%] | cell viability (U2OS [2]; 100 nM) [%] | cell viability (U2OS [2]; 1000 nM) [%] | cell viability (U2OS [2]; 10000 nM) [%] | cell viability (Caco-2 [3]; 1 nM) [%] | cell viability (Caco-2 [3]; 10 nM) [%] | cell viability (Caco-2 [3]; 100 nM) [%] | cell viability (Caco-2 [3]; 1000 nM) [%] | cell viability (Caco-2 [3]; 10000 nM) [%] | cell viability (Calu-3 [4]; 1 nM) [%] | cell viability (Calu-3 [4]; 10 nM) [%] | cell viability (Calu-3 [4]; 100 nM) [%] | cell viability (Calu-3 [4]; 1000 nM) [%] | cell viability (Calu-3 [4]; 10000 nM) [%] | cell viability (HepG2 [5]; 1 nM) [%] | cell viability (HepG2 [5]; 10 nM) [%] | cell viability (HepG2 [5]; 100 nM) [%] | cell viability (HepG2 [5]; 1000 nM) [%] | cell viability (HepG2 [5]; 10000 nM) [%] | drug sensitivity score (Vero E6 [6]) | drug sensitivity score (U2OS [7]) | drug sensitivity score (Caco-2 [8]) | drug sensitivity score (Calu-3 [9]) | drug sensitivity score (HepG2 [10]) | relative viability EC50 (Vero E6 [11]) [µM] | relative viability EC50 (U2OS [12]) [µM] | relative viability EC50 (Caco-2 [13]) [µM] | relative viability EC50 (HepG2 [14]) [µM] | relative viability EC50 (Calu-3 [15]) [µM]
COC(=O)/C=C/c1cc(O)ccc1O [erbstatin-analog] | 98.8 | 96.1 | 94.7 | 74.8 | 22.6 | 101 | 103 | 95.2 | 97.4 | 34.8 | 97.7 | 102 | 91.8 | 94.3 | 40.9 | 113 | 97.6 | 106 | 99.2 | 73.3 | 92 | 101 | 99.8 | 102 | 50 | 7.6 | 3.9 | 4.1 | 1.2 | 2.5 | 1.41 | 2.86 | 2.37 | 3.37 | –
O=c1cccc2n1C[C@H]1C[C@@H]2CN(CCN2C[C@@H]3C[C@H](C2)c2cccc(=O)n2C3)C1 [CC4] | 97.4 | 94.6 | 98.8 | 92.8 | 101 | – | – | – | – | – | 98.2 | 100 | 91.4 | 93.1 | 98.3 | 87.1 | 104 | 101 | 119 | 104 | 91.3 | 91.9 | 93.9 | 97.4 | 93.4 | 0 | – | 0 | 0 | 0 | > 10 | – | > 10 | > 10 | > 10
O=c1cc(-c2cccc3c2Sc2ccccc2S3)oc(N2CCOCC2)c1 | 97.5 | 102 | 101 | 106 | 83.3 | 99.8 | 99.6 | 102 | 100 | 93.3 | 103 | 102 | 98.2 | 93.3 | 67.8 | 100 | 98.9 | 98.2 | 104 | 106 | 104 | 102 | 93.5 | 108 | 85.9 | 0.2 | 0 | 2.5 | 0 | 0.1 | > 10 | > 10 | – | > 10 | > 10
CC(=O)[C@]1(N)Cc2c(O)c3c(c(O)c2[C@@H](O[C@H]2C[C@H](O)[C@H](O)CO2)C1)C(=O)c1ccccc1C3=O [amrubicin] | 96 | 104 | 99.8 | 88.4 | 32.1 | 104 | 99 | 102 | 102 | 73.7 | 101 | 105 | 99.6 | 86.9 | 7.4 | 96 | 117 | 114 | 110 | 86.7 | 105 | 110 | 103 | 84.5 | -0.2 | 5.7 | 0.9 | 7.3 | 0 | 8.1 | 1.87 | – | 2.04 | 1.96 | > 10
c1cc(-c2cnn3cc(-c4ccc(OCCN5CCCCC5)cc4)cnc23)ccn1 [dorsomorphin] | 98.5 | 94.5 | 102 | 96.8 | 9.1 | 102 | 104 | 95.9 | 91.4 | 16.7 | 96.8 | 96.6 | 89.4 | 95.1 | 56.5 | 102 | 95.6 | 99.4 | 98.9 | 47.4 | 103 | 103 | 90.5 | 93.1 | 11.6 | 5.5 | 6 | 3 | 2.9 | 6 | 2.9 | 2.31 | – | 2.52 | 3.02
COc1cc(NC(=O)c2ccc(-c3ccc(Cl)cc3)o2)cc(OC)c1 | 94.5 | 101 | 97.2 | 97.6 | 101 | – | – | – | – | – | 108 | 98.9 | 107 | 102 | 98.1 | 121 | 103 | 109 | 101 | 99.3 | 105 | 109 | 91.9 | 114 | 102 | 0 | – | 0 | 0 | 0 | > 10 | – | > 10 | > 10 | > 10
O=C1NC(=O)/C(=C/c2ccc(-c3ccc(F)cc3O)o2)S1 | 102 | 100 | 99.3 | 100 | 81.2 | 103 | 101 | 91 | 104 | 91.2 | 94 | 103 | 96.3 | 105 | 72.5 | 116 | 109 | 102 | 98.2 | 77 | 96.2 | 96.2 | 95.9 | 96.6 | 106 | 0.5 | 0 | 0.9 | 1 | 0 | > 10 | > 10 | – | > 10 | > 10
COc1ccc(Cl)c(Nc2ncnc3cc(OCC4CCN(C)CC4)c(OC)cc23)c1 | 95.5 | 99.3 | 89.7 | 76.6 | 27.3 | 104 | 97.2 | 103 | 95.8 | 77.7 | 93 | 108 | 99.1 | 89.9 | 68.3 | 94.5 | 102 | 89.7 | 75 | 28.5 | 99.1 | 105 | 90.6 | 96.6 | 87.7 | 6.7 | 1.4 | 2.9 | 6.7 | 0 | 1.49 | > 10 | – | > 10 | 1.42
CC(C)(C)S(=O)(=O)N[C@H]1CC[C@H](C(=O)Nc2ccc(C(F)(F)F)cn2)CC1 [velneperit] | 94.4 | 104 | 98.4 | 101 | 94.5 | – | – | – | – | – | 109 | 98.1 | 103 | 91.7 | 104 | 106 | 103 | 117 | 95.5 | 99.1 | 100 | 105 | 105 | 98.9 | 98 | 0 | – | 0 | 0 | 0 | > 10 | – | > 10 | > 10 | > 10
Cn1cc(C(F)(F)F)nc1-c1ccc(OCC(O)CNCCOc2ccc(O)c(C(N)=O)c2)cc1 (configuration not stated) | 104 | 96.4 | 102 | 90.1 | 95.7 | 98.7 | 100 | 94 | 101 | 98.1 | 102 | 96.6 | 102 | 98.7 | 87.4 | – | – | – | – | – | 111 | 97 | 122 | 94.3 | 114 | 0 | 0 | 0.2 | – | 0 | > 10 | > 10 | > 10 | > 10 | –
CN(C(=O)CN(CCO)CC(=O)N(C)C(C)(C)Cc1ccccc1)C(C)(C)Cc1ccccc1 [oxethazaine] | 94.8 | 97.7 | 93.7 | 99.8 | 101 | 99.7 | 97.5 | 101 | 97.2 | 68.2 | 90.7 | 105 | 102 | 93.1 | 74.6 | 94.4 | 101 | 100 | 97.6 | 42.2 | 104 | 101 | 98.9 | 111 | 91.2 | 0 | 1.9 | 1.9 | 3.4 | 0 | > 10 | – | – | > 10 | 2.86
Cc1noc2c1-c1ccccc1C(c1ccc(Cl)cc1)=N[C@H]2CC(N)=O [CPI-0610] | 111 | 108 | 88.4 | 38.5 | 16.2 | 105 | 108 | 97.3 | 84.1 | 47.6 | 104 | 108 | 106 | 94.5 | 80.6 | 103 | 99.7 | 105 | 90 | 64.7 | 109 | 111 | 101 | 75.2 | 49.4 | 13 | 5.1 | 1.2 | 3.2 | 5.9 | 0.449 | 1.42 | > 10 | 1.02 | –
CC1(COc2ccc3c(c2)ncn3-c2ccc3cccc(N4CCC(N)CC4)c3n2)COC1 [crenolanib] | 102 | 104 | 101 | 102 | 22.6 | 106 | 102 | 106 | 101 | 9.4 | 101 | 97.1 | 102 | 112 | 94.5 | – | – | – | – | – | 107 | 103 | 107 | 101 | 9.5 | 4.1 | 4.9 | 0 | – | 4.9 | 3.3 | 3.26 | > 10 | 3.26 | –
CN(C)CCCN1c2ccccc2CCc2ccccc21 [imipramine] | 100 | 98.7 | 99.4 | 96.6 | 98.5 | 101 | 103 | 96 | 102 | 90.4 | – | – | – | – | – | 88.8 | 105 | 96.1 | 108 | 94.3 | 95.9 | 102 | 104 | 95.3 | 98.1 | 0 | 0 | – | 0 | 0 | > 10 | > 10 | – | > 10 | > 10
CO[C@H]1CC[C@@H](C(=O)c2ccc3nc4c(cc3c2)CCCO4)CC1 | 102 | 103 | 93.1 | 99 | 100 | 99.8 | 93.8 | 104 | 97.8 | 101 | 90.8 | 90.3 | 104 | 99.2 | 92.7 | – | – | – | – | – | 99.5 | 107 | 104 | 102 | 104 | 0 | 0 | 0 | – | 0 | > 10 | > 10 | > 10 | > 10 | –
